Data: patent US20210255193A1, “LYSINE REACTIVE PROBES AND USES THEREOF” (The Scripps Research Institute, priority 2017, published 2021)

What was measured:
Test in all cases: competitive isoTOP-ABPP
Format in all cases: binding
[1] = molecular target: T1, RPS10 40S ribosomal protein S10 (Homo sapiens, UniProt P46783)
T1 construct: isoTOP-ABPP experiments performed in cell lysates (in vitro); endogenous in cells; host or cells: soluble proteome of human cancer cell lines (MDA-MB-231; Ramos and Jurkat also prepared)
How it was run: (§1)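 Lysate + fragment (50 μM activated ester / 100 μM guanidinylating agent) or DMSO → 0.1 mM STP-alkyne, 1 h, RT → CuAAC to TEV tags (compound light, DMSO heavy) → LC-MS. R = heavy/light MS1 area; liganded lysine if R≥4.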

[2] = molecular target: T2, TSTA3 GDP-L-fucose synthase (Homo sapiens, UniProt Q13630); settings: for R value (DMSO/fragment) for probe 1 labeling: Q13630_K108; for R value (DMSO/fragment) for probe 1 labeling / isoTOP-ABPP reactivity ratio at lysine Q13630_K108: 231 sol
T2 construct: isoTOP-ABPP experiments performed in cell lysates (in vitro); endogenous in cells; host or cells: soluble proteome of human cancer cell lines (MDA-MB-231, Ramos, Jurkat)
T2 sequence (Q13630 whole entry, the tested form may be a part): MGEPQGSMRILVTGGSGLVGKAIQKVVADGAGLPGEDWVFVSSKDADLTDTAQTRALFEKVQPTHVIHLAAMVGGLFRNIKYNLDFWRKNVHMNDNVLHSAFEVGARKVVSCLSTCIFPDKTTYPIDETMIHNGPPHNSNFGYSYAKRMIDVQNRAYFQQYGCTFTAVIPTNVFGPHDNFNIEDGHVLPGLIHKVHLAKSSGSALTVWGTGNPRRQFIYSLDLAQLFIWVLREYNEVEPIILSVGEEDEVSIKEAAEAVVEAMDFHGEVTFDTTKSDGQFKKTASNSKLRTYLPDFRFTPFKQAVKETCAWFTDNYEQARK
How it was run: as §1

[3] = molecular target: T3, AKR1C3 Aldo-keto reductase family 1 member C3 (Homo sapiens, UniProt P42330); settings: for isoTOP-ABPP reactivity ratio at lysine P42330_K270 / isoTOP-ABPP ratio (R) at liganded lysine P42330_K270: 50 uM, in vitro; for isoTOP-ABPP reactivity ratio at lysine P42330_K270: 231 sol; for isoTOP-ABPP ratio (R) at liganded lysine P42330_K270: sol, 231; for isoTOP-ABPP ratio, lysine P42330_K270: possible other lysine P52895_K270, P17516_K270, Q04828_K270
T3 construct: isoTOP-ABPP experiments performed in cell lysates (in vitro); endogenous in cells; host or cells: soluble proteome of human cancer cell lines (MDA-MB-231; Ramos and Jurkat also prepared)
T3 sequence (P42330 1-323): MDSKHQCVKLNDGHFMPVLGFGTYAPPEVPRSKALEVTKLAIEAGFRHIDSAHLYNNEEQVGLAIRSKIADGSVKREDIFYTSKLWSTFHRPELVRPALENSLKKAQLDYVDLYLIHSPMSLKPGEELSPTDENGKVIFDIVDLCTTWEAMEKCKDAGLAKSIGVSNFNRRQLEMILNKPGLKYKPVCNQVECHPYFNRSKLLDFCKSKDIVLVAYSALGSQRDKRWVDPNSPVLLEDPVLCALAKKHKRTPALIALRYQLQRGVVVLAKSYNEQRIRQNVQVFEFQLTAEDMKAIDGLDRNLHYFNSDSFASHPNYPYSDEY
How it was run: as §1

**Q.** Which results are given for Cn1cc(CC(=O)Oc2c(F)c(F)c(F)c(F)c2F)c2ccccc21 [fragment 22, Pentafluorophenyl 2-(1-methyl-1H-indol-3-yl)acetate]?
**A.** R value (DMSO/fragment) for probe 1 labeling ([1]; P46783_K139, 50 uM, 231 sol, in vitro): 0.9; R value (DMSO/fragment) for probe 1 labeling ([2]; 50 uM, in vitro): 1.1

**Q.** For COc1cc(CCC(=O)Oc2c(F)c(F)c(F)c(F)c2F)cc(OC)c1OC [fragment 23, Pentafluorophenyl 3-(3,4,5-trimethoxyphenyl)propanoate], which “R value (DMSO/fragment) for probe 1 labeling” value ([2]; 50 uM, in vitro) is on record?
**A.** 1.0

**Q.** What does the source list for O=C(Oc1c(F)c(F)c(F)c(F)c1F)C1CCN(C(=O)OCc2ccccc2)CC1 [fragment 24, 1-Benzyl 4-(pentafluorophenyl) piperidine-1,4-dicarboxylate]?
**A.** isoTOP-ABPP reactivity ratio at lysine P42330_K270 [3]: 4.2; isoTOP-ABPP reactivity ratio at lysine P46783_K139 ([1]; 50 uM, 231 sol, in vitro): 1.2; isoTOP-ABPP reactivity ratio at lysine Q13630_K108 ([2]; 50 uM, in vitro): 0.6

**Q.** Which results are given for O=C(CCc1coc2cc(F)ccc2c1=O)Oc1c(F)c(F)c(F)c(F)c1F [fragment 26, Pentafluorophenyl 3-(7-fluoro-4-oxo-4H-chromen-3-yl)propanoate]?
**A.** isoTOP-ABPP reactivity ratio at lysine P46783_K139 ([1]; 50 uM, 231 sol, in vitro): 1.0; isoTOP-ABPP reactivity ratio at lysine Q13630_K108 ([2]; 50 uM, in vitro): 1.4

**Q.** With O=C(CN1C(=O)c2ccccc2C1=O)Oc1c(F)c(F)c(F)c(F)c1F [fragment 27, Pentafluorophenyl 2-(1,3-dioxoisoindolin-2-yl)acetate] as the compound, how does the “isoTOP-ABPP reactivity ratio at lysine P42330_K270” value [3] read?
**A.** 2.7

**Q.** And the “isoTOP-ABPP reactivity ratio at lysine Q13630_K108” value ([2]; 50 uM, in vitro)?
**A.** 4.6

**Q.** How did the “isoTOP-ABPP reactivity ratio at lysine P42330_K270” value [3] turn out when COc1cc(CCC(=O)Oc2ccc([N+](=O)[O-])cc2[N+](=O)[O-])cc(OC)c1OC [fragment 33, 2,4-Dinitrophenyl 3-(3,4,5-trimethoxyphenyl)propanoate] was run?
**A.** 1.0

**Q.** What about the “isoTOP-ABPP reactivity ratio at lysine P46783_K139” value ([1]; 50 uM, 231 sol, in vitro) of the same compound?
**A.** 0.7

**Q.** And the “isoTOP-ABPP reactivity ratio at lysine Q13630_K108” value ([2]; 50 uM, in vitro)?
**A.** 1.2

**Q.** Which “isoTOP-ABPP ratio (R) at liganded lysine P42330_K270” value [3] does the source give for O=C(Oc1ccc([N+](=O)[O-])cc1[N+](=O)[O-])C1CCN(C(=O)OCc2ccccc2)CC1 [fragment 34, 1-Benzyl 4-(2,4-dinitrophenyl) piperidine-1,4-dicarboxylate] here?
**A.** 1.1

**Q.** O=C(CCc1coc2cc(F)ccc2c1=O)Oc1ccc([N+](=O)[O-])cc1[N+](=O)[O-] [fragment 36, 2,4-Dinitrophenyl 3-(7-fluoro-4-oxo-4H-chromen-3-yl)propanoate] was tested. Which “isoTOP-ABPP ratio (R) at liganded lysine P42330_K270” value [3] did it give?
**A.** 0.6

**Q.** What about the “isoTOP-ABPP ratio (R) at liganded lysine P46783_K139” value ([1]; 50 uM, in vitro, sol, 231) of the same compound?
**A.** 0.7

**Q.** With O=C(Oc1ccc([N+](=O)[O-])cc1[N+](=O)[O-])c1ccc(Oc2ccccc2)cc1 [fragment 39, 2,4-Dinitrophenyl 4-phenoxybenzoate] as the compound, how does the “isoTOP-ABPP ratio (R) at liganded lysine P42330_K270” value [3] read?
**A.** 0.8

**Q.** How did the “isoTOP-ABPP ratio (R) at liganded lysine P42330_K270” value [3] turn out when O=C(Oc1ccc([N+](=O)[O-])cc1[N+](=O)[O-])c1ccccc1Nc1cccc(C(F)(F)F)c1 [fragment 40, 2,4-Dinitrophenyl 2-((3-(trifluoromethyl)phenyl)amino)benzoate] was run?
**A.** 2.2

**Q.** And the “isoTOP-ABPP ratio (R) at liganded lysine Q13630_K108” value ([2]; 50 uM, in vitro, sol, 231)?
**A.** 0.9

**Q.** With O=C(CCc1ccc2c(c1)OCO2)Oc1ccc([N+](=O)[O-])cc1[N+](=O)[O-] [fragment 45, 2,4-Dinitrophenyl 3-(benzo[d][1,3]dioxol-5-yl)propanoate] as the compound, how does the “isoTOP-ABPP ratio, lysine P42330_K270” value ([3]; 50 uM_231_sol_in vitro) read?
**A.** 0.8

**Q.** And the “isoTOP-ABPP ratio, lysine Q13630_K108” value ([2]; 50 uM_231_sol_in vitro)?
**A.** 20.0

**Q.** Which “isoTOP-ABPP ratio, lysine P42330_K270” value ([3]; 50 uM_231_sol_in vitro) does the source give for O=C(Oc1c(F)c(F)c(C(F)(F)F)c(F)c1F)c1cc(C(F)(F)F)cc(C(F)(F)F)c1 [fragment 47, 2,3,5,6-Tetrafluoro-4-(trifluoromethyl)phenyl 3,5-bis(trifluoromethyl)benzoate] here?
**A.** 2.5

**Q.** With O=C(Oc1c(F)c(F)cc(F)c1F)c1cc(C(F)(F)F)cc(C(F)(F)F)c1 [fragment 48, 2,3,5,6-Tetrafluorophenyl 3,5-bis(trifluoromethyl)benzoate] as the compound, how does the “isoTOP-ABPP ratio, lysine P46783_K139” value ([1]; 50 uM_231_sol_in vitro) read?
**A.** 0.8

**Q.** COC(=O)NC(=NC(=O)OCC1c2ccccc2-c2ccccc21)n1cccn1 [fragment 49, N-Methoxycarbonyl-N′-9-fluorenylmethoxycarbonyl-pyrazole-1-carboxamidine] was tested. Which “isoTOP-ABPP ratio, lysine P42330_K270” value ([3]; 100 uM_231_sol_in vitro) did it give?
**A.** 0.8

**Q.** What about the “isoTOP-ABPP ratio, lysine P46783_K139” value ([1]; 100 uM_231_sol_in vitro) of the same compound?
**A.** 20.0

**Q.** Which “isoTOP-ABPP ratio, lysine P42330_K270” value ([3]; 50 uM_231_sol_in vitro) does the source give for NC(=O)c1cc(C(F)(F)F)cc(C(F)(F)F)c1 [fragment 51, reference compound] here?
**A.** 0.8
